Experimental data reported in publication PMC6138237, “Machine intelligence decrypts β-lapachone as an allosteric 5-lipoxygenase inhibitor” (Chemical Science, 2018).
pIC50: −log10 of the molar value. Where two headings read alike, the source gives them in different places.

Columns and labels:
PAK4 = PAK4 (Homo sapiens, UniProt O96013); experiment: ExpresS Diversity Kinase Profile, Cerep (LANCE): PAK4; type: biochemical
5-LO [1] = molecular target: T1, 5-LO (Homo sapiens, UniProt P09917); type: biochemical
T1 sequence (P09917 1-674): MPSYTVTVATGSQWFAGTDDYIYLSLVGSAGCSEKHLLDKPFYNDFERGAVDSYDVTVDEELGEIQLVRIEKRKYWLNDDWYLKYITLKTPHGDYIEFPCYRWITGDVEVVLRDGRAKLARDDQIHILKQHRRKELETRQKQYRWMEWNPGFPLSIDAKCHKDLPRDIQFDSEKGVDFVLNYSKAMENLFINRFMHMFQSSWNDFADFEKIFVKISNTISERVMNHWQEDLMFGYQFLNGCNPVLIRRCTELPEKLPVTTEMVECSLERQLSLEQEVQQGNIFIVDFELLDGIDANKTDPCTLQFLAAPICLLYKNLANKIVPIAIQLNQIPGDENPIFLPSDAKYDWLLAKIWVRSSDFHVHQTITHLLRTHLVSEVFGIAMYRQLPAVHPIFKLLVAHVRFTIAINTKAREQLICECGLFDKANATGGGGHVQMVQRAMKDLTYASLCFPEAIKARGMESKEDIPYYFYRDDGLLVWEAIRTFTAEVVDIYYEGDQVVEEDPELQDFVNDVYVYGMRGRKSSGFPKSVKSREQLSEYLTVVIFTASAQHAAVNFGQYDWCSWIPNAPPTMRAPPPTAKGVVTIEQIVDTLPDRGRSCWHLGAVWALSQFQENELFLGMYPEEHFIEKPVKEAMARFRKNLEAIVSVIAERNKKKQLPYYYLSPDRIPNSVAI

EphA3 = molecular target: T2, EphA3 (Homo sapiens, UniProt P29320); experiment: ExpresS Diversity Kinase Profile, Cerep (LANCE): EphA3; type: biochemical
T2 sequence (P29320 21-983): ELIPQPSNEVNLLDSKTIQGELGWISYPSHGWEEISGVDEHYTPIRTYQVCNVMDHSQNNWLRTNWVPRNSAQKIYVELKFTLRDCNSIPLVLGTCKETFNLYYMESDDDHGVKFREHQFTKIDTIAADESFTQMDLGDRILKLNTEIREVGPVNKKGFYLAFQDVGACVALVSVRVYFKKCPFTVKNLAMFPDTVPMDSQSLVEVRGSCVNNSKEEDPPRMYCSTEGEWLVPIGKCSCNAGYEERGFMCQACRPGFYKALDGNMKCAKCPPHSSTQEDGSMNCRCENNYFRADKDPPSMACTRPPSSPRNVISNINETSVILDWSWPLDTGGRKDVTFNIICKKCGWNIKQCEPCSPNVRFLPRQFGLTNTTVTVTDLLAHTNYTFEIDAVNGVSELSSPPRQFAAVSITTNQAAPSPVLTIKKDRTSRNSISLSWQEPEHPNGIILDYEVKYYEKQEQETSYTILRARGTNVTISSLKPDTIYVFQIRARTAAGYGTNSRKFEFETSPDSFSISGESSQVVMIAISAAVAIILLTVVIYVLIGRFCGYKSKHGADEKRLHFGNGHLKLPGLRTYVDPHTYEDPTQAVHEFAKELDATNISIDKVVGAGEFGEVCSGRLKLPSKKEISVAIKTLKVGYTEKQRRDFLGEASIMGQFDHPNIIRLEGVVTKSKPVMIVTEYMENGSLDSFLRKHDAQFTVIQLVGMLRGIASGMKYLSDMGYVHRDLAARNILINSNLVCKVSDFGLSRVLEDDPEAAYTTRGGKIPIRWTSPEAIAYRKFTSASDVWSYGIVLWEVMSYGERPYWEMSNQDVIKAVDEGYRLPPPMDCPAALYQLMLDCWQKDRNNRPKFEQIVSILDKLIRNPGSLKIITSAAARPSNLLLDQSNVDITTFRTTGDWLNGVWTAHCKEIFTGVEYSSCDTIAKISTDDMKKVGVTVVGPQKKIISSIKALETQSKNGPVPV

5-LO [2] = molecular target: T1, 5-LO; experiment: 5-LO product formation in intact human neutrophils stimulated with A23187 plus arachidonic acid
12-LO = molecular target: T3, 12-LO (Homo sapiens, UniProt P18054); experiment: 12-LO inhibition in intact human neutrophils
T3 sequence (P18054 1-663): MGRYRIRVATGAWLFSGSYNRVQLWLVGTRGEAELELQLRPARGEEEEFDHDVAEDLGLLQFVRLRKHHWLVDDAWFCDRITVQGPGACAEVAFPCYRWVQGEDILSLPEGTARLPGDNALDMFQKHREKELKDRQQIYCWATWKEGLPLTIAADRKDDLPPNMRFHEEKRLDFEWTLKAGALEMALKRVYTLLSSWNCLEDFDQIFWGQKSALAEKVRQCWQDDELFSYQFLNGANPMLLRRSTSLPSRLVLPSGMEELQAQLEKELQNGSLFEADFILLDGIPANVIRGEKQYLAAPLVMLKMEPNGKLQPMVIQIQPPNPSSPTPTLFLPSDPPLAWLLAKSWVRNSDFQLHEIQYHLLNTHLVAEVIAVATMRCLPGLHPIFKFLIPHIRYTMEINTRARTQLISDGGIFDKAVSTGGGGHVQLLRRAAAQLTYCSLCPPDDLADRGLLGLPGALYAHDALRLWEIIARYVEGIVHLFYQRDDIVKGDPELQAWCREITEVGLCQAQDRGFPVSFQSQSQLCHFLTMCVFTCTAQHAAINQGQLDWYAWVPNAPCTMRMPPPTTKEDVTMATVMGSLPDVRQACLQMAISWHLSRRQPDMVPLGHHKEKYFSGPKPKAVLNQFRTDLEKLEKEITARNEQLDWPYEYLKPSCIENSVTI

[3] = tested on: Staphylococcus aureus ATCC 25923; experiment: Minimum inhibitory concentration assay, Staphylococcus aureus; conditions: concentrations up to 50 µM
PLK1 = PLK1 (Homo sapiens, UniProt P53350); experiment: ExpresS Diversity Kinase Profile, Cerep (LANCE): PLK1; type: biochemical
MNK2 = MNK2 (Homo sapiens, UniProt Q9HBH9); experiment: ExpresS Diversity Kinase Profile, Cerep (LANCE): MNK2; type: biochemical
[4] = n = 2, read-out: % Inhibition of control values, Mean
[5] = read-out: % Inhibition of control values, 1st measurement
[6] = read-out: % Inhibition of control values, 2nd measurement

Chain of MNK2 (Q9HBH9 whole entry): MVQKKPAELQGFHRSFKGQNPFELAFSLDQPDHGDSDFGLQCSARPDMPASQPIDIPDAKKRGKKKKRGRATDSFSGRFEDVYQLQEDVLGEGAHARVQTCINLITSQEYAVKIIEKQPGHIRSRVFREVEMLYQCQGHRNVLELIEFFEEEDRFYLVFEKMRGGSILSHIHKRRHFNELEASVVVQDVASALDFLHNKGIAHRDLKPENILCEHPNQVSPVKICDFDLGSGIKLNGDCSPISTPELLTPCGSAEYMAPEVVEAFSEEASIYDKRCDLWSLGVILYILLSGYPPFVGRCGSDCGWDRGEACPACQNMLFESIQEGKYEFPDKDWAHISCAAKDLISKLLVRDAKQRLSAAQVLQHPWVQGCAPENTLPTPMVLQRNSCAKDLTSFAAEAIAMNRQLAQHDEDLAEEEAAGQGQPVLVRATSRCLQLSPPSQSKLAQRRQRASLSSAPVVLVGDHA
Chain of PLK1 (P53350 whole entry): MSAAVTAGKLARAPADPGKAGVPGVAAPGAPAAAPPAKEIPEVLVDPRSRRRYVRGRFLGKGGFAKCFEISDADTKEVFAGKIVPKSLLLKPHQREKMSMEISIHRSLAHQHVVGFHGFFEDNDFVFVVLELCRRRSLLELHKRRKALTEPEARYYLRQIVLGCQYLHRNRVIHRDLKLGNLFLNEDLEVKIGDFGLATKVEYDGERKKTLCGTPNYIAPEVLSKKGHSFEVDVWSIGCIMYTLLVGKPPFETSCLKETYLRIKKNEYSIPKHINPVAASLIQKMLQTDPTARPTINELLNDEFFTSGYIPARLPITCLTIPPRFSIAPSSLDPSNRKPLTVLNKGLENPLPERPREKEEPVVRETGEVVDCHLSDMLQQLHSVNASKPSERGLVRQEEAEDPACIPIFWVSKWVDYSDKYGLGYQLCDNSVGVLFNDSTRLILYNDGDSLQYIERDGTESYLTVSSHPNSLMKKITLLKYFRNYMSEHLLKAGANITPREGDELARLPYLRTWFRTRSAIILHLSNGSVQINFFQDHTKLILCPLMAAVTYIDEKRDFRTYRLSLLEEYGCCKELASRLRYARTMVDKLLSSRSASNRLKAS
Chain of PAK4 (O96013 whole entry): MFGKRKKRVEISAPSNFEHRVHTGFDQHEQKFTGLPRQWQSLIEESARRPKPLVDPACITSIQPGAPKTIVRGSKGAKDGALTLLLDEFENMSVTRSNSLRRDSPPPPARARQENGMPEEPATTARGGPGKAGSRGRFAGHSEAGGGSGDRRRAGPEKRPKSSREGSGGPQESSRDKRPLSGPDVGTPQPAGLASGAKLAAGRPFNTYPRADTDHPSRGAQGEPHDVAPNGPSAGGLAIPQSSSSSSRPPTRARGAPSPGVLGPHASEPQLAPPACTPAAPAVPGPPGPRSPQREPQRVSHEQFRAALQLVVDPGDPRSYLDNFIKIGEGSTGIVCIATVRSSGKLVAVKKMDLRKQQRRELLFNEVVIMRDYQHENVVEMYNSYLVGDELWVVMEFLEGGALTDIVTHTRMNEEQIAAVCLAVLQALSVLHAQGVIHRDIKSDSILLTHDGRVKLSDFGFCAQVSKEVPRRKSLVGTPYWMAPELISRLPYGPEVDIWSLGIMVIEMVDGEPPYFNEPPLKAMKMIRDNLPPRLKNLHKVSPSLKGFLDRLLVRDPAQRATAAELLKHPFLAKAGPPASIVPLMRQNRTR

CC1(C)CCC2=C(O1)c1ccccc1C(=O)C2=O [β-Lapachone]
inhibition at 150 µM (PAK4; [4]): -1.9% | inhibition at 150 µM (PAK4; [5]): -3.7% | inhibition at 150 µM (PAK4; [6]): 0% | inhibition of 5-LO at varying arachidonic acid concentrations (5-LO [1]; AA 2.5–40 μM, n = 3): non-competitive inhibition | pIC50 (5-LO [1]; IC50 (3 μg mL^–1, PC), competition with phosphatidylcholine 3 μg/mL, n = 3): 7.00 | pIC50 (5-LO [1]; IC50 (30 μg mL^–1, PC), competition with phosphatidylcholine 30 μg/mL, n = 3): 6.00 | pIC50 (5-LO [1]; IC50 (with DTT), cell-free, reducing conditions, 1 mM dithiothreitol (DTT), n = 3): 6.62 | pIC50 (5-LO [1]; IC50 (without Triton X100), cell-free, plus 1 mM DTT, no Triton X100, n = 3): 6.92 | pIC50 (5-LO [1]; cell-free, absence of DTT, n = 3, read-out: IC50 (without DTT)): < 4.52 | pIC50 (5-LO [1]; cell-free, plus 1 mM DTT, 0.01% Triton X100, n = 3, read-out: IC50 (with Triton X100)): 7.05 | 5-LO activity upon wash-out (5-LO [1]; wash-out experiment, 10-fold dilution, plus 1 mM DTT): reinstated | inhibition at 150 µM (EphA3; [4]): 65.1% | inhibition at 150 µM (EphA3; [5]): 66.8% | inhibition at 150 µM (EphA3; [6]): 63.3% | pIC50 (5-LO [2]; IC50 (5-LO), intact human neutrophils, without DTT, n = 3): 5.07 | pIC50 (5-LO [2]; IC50, intact human neutrophils supplemented with 1 mM DTT, n = 4): 6.38 | pIC50 (12-LO): < 4.52 | phenotypic effects on Staphylococcus aureus [3]: No phenotypic effects | inhibition at 150 µM (PLK1; [4]): 60% | inhibition at 150 µM (PLK1; [5]): 61.1% | inhibition at 150 µM (PLK1; [6]): 58.9% | inhibition at 150 µM (MNK2; [4]): 80.1% | inhibition at 150 µM (MNK2; [5]): 78.1% | inhibition at 150 µM (MNK2; [6]): 82.1%
